The structures appear in SMILES notation. Structures can show the parent of a compound that is named as a salt.

The target of one assay is T1, human beta-3-adrenergic receptor (Homo sapiens, UniProt P13945).
T1 construct: stably express full-length human beta-3-adrenergic receptor; expressed in transfected cells; host or cells: Chinese hamster ovary (CHO) cells
T1 sequence (P13945 whole entry): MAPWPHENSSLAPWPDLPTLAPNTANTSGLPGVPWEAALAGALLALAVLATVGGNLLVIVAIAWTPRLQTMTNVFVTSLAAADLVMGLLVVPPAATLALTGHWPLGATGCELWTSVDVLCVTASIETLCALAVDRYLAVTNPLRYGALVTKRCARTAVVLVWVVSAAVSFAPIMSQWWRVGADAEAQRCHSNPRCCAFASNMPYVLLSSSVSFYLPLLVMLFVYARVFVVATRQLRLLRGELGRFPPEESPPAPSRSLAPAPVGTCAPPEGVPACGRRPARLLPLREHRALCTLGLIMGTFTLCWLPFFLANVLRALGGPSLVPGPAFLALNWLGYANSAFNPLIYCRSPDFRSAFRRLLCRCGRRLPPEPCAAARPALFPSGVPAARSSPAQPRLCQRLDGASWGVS
Description: cAMP production (beta-3 agonist activity) in CHO cells stably expressing human beta-3-adrenergic receptor, cAMP SPA. The class given is cell-based. As to conditions: CHO cells expressing full-length human beta-3-adrenergic receptor, 30 min incubation, 10 μM to 3 nM, read-out: Beta-3 Agonistic Activity: Compounds with EC50 values >1 μM. The essentials: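 CHO cells stably expressing full-length receptor treated 30 min at 37° C with compounds (10 μM to 3 nM, 3-fold dilutions) in KRP buffer pH 7.4 with […] IBMX and 1% DMSO. Lysed cells assayed for cAMP by SPA; EC50 derived from cAMP concentration-response curves.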
On to `Nc1ccc([C@@H](O)CNC[C@H]2CCc3cc(C(=O)N4CCC[C@@H]4C(=O)O)ccc3O2)cn1` [Example 367], for which the EC50 was greater than 1000 nM.

Still in this assay, the particulars now being: CHO cells expressing full-length human beta-3-adrenergic receptor, 30 min incubation, 10 μM to 3 nM, read-out: Beta-3 Agonistic Activity: Compounds with EC50 values ≦1 μM.
On to `O=C(CC(F)(F)F)NS(=O)(=O)c1ccc(-c2ccc3c(c2)CC[C@H](CNC[C@H](O)c2cccnc2)O3)cc1` [Example 284, 4-[(2R)-2-({[(2R)-2-hydroxy-2-(3-pyridinyl)ethyl]amino}methyl)-3,4-dihydro-2H-chromen-6-yl]-N-(3,3,3-trifluoropropanoyl)benzenesulfonamide], for which the EC50 was no more than 1000 nM.

On to `Nc1ccc([C@@H](O)CNC[C@H]2CCc3cc(-c4ccc(C(=O)O)cc4)ccc3O2)cn1` [Example 385, 4-[(2R)-2-({[(2R)-2-(6-amino-3-pyridinyl)-2-hydroxyethyl]amino}methyl)-3,4-dihydro-2H-chromen-6-yl]benzoic Acid], for which the EC50 was no more than 1000 nM.

For `COc1cc(OC)nc(NS(=O)(=O)c2ccc(-c3ccc4c(c3)CC[C@H](CNC[C@H](O)c3cccnc3)O4)cc2OC(F)(F)F)n1` [Example 274, N-(4,6-dimethoxy-2-pyrimidinyl)-4-[(2R)-2-({[(2R)-2-hydroxy-2-(3-pyridinyl)ethyl]amino}methyl)-3,4-dihydro-2H-chromen-6-yl]-2-(trifluoromethoxy)benzenesulfonamide], the EC50 is no more than 1000 nM.

Regarding `O=S(=O)(Nc1cnccc1C(F)(F)F)c1ccc(-c2ccc3c(c2)CC[C@H](CNC[C@H](O)c2cccnc2)O3)cc1` [Example 251], the EC50 was no more than 1000 nM.

In the case of `CC1(O)C(=O)NN(c2cccc(-c3ccc4c(c3)CC[C@@H](CNC[C@H](O)c3cccnc3)O4)c2)C1=O` (stereo partly drawn) [Example 314, 4-hydroxy-1-{3-[(2S)-2-({[(2R)-2-hydroxy-2-(3-pyridinyl)ethyl]amino}methyl)-3,4-dihydro-2H-chromen-6-yl]phenyl}-4-methyl-3,5-pyrazolidinedione Dihydrochloride], the concentration for a half-maximal effect (EC50) is no more than 1000 nM.

In the case of `O[C@@H](CNC[C@H]1CCc2cc(-c3ccccc3C(F)(F)F)ccc2O1)c1cccnc1` [Example 40], the EC50 was no more than 1000 nM.

As for `COc1cc(OC)nc(NS(=O)(=O)c2ccc(-c3ccc4c(c3)CC[C@H](CNC[C@H](O)c3cccnc3)O4)cc2)n1` [Example 267], the EC50 is no more than 1000 nM.

As for `Cc1ccc(NC(=O)NS(=O)(=O)c2cccc(-c3ccc4c(c3)CC[C@H](CNC[C@H](O)c3cccnc3)O4)c2)cc1` [Example 324, 3-((1R)-1-hydroxy-2-{[((2R)-6-{3-[({[(4-methylphenyl)amino]carbonyl}amino)sulfonyl]phenyl}-3,4-dihydro-2H-chromen-2-yl)methyl]amino}ethyl)pyridine Hydrochloride], the EC50 is no more than 1000 nM.

On to `O=C(O)c1ccc(CCc2ccc3c(c2)CCC(CNC[C@H](O)c2cccnc2)O3)cc1` (stereo in doubt) [Example 215, 4-{2-[(2S)-2-({[(2R)-2-hydroxy-2-(3-pyridinyl)ethyl]amino}methyl)-3,4-dihydro-2H-chromen-6-yl]ethyl}benzoic Acid], for which the EC50 was no more than 1000 nM.

On to `COCCOc1cc(-c2ccc3c(c2)CC[C@H](CNC[C@H](O)c2cccnc2)O3)ccc1C(=O)O` [Example 187, 4-[(2R)-2-({[(2R)-2-hydroxy-2-(3-pyridinyl)ethyl]amino}methyl)-3,4-dihydro-2H-chromen-6-yl]-2-(2-methoxyethoxy)benzoic acid], for which the EC50 was no more than 1000 nM.

`Cc1ccc(C(=O)NS(=O)(=O)c2ccc(-c3ccc4c(c3)CC[C@H](CNC[C@H](O)c3cccnc3)O4)cc2)cc1` [Example 296]: the half-maximal effective concentration (EC50) is no more than 1000 nM.

Turning to `CCOc1cc(-c2ccc3c(c2)CC[C@H](CNC[C@H](O)c2cccnc2)O3)ccc1C(=O)O` [Example 185, 2-ethoxy-4-[(2R)-2-({[(2R)-2-hydroxy-2-(3-pyridinyl)ethyl]amino}methyl)-3,4-dihydro-2H-chromen-6-yl]benzoic acid], the concentration giving a half-maximal response (EC50) was no more than 1000 nM.

For `O=S(=O)(Nc1cccnc1)c1ccc(-c2ccc3c(c2)CC[C@H](CNC[C@H](O)c2cccnc2)O3)cc1` [Example 253, 4-[(2R)-2-({[(2R)-2-hydroxy-2-(3-pyridinyl)ethyl]amino}methyl)-3,4-dihydro-2H-chromen-6-yl]-N-(3-pyridinyl)benzenesulfonamide], the EC50 was no more than 1000 nM.

With `O=S(=O)(Nc1nc2ccccc2s1)c1ccc(-c2ccc3c(c2)CCC(CNC[C@H](O)c2cccnc2)O3)cc1` (stereo partly drawn) [Example 276], the EC50 was no more than 1000 nM.

For the compound `O=C(NS(=O)(=O)c1ccc(-c2ccc3c(c2)CC[C@H](CNC[C@H](O)c2cccnc2)O3)cc1)c1ccc(F)cc1` [Example 295, N-(4-fluorobenzoyl)-4-[(2R)-2-({[(2R)-2-hydroxy-2-(3-pyridinyl)ethyl]amino}methyl)-3,4-dihydro-2H-chromen-6-yl]benzenesulfonamide], the EC50 was no more than 1000 nM.

For `COc1cc(C)nc(NS(=O)(=O)c2ccc(-c3ccc4c(c3)CC[C@H](CNC[C@H](O)c3cccnc3)O4)cc2)n1` [Example 273, 4-[(2R)-2-({[(2R)-2-hydroxy-2-(3-pyridinyl)ethyl]amino}methyl)-3,4-dihydro-2H-chromen-6-yl]-N-(4-methoxy-6-methyl-2-pyrimidinyl)benzenesulfonamide], the EC50 was no more than 1000 nM.

Turning to `COc1ccc(-c2ccc3c(c2)CC[C@H](CNC[C@H](O)c2cccnc2)O3)cc1S(=O)(=O)Nc1nccs1` [Example 266], the EC50 was no more than 1000 nM.

For the compound `CCC(=O)NS(=O)(=O)c1cccc(-c2ccc3c(c2)CC[C@H](CNC[C@H](O)c2cccnc2)O3)c1` [Example 305], the EC50 was no more than 1000 nM.

As for `COCC(=O)NS(=O)(=O)c1cccc(-c2ccc3c(c2)CCC(CNC[C@H](O)c2cccnc2)O3)c1` (stereo in doubt) [Example 283, 3-[(2S)-2-({[(2R)-2-hydroxy-2-(3-pyridinyl)ethyl]amino}methyl)-3,4-dihydro-2H-chromen-6-yl]-N-(methoxyacetyl)benzenesulfonamide], the EC50 is no more than 1000 nM.

With `O=C(O)c1ccc(-c2ccc3c(c2)CC[C@H](CNC[C@H](O)c2cccnc2)O3)cc1Oc1ccccc1` [Example 192, 4-[(2R)-2-({[(2R)-2-hydroxy-2-(3-pyridinyl)ethyl]amino}methyl)-3,4-dihydro-2H-chromen-6-yl]-2-(phenyloxy)benzoic Acid], the EC50 was no more than 1000 nM.

With `O=C(NS(=O)(=O)c1ccc(-c2ccc3c(c2)CC[C@H](CNC[C@H](O)c2cccnc2)O3)cc1)C(C(F)(F)F)C(F)(F)F` [Example 288], the EC50 is no more than 1000 nM.

Turning to `Cc1ccc(C(=O)NS(=O)(=O)c2cccc(-c3ccc4c(c3)CC[C@H](CNC[C@H](O)c3cccnc3)O4)c2)cc1` [Example 299], the EC50 was no more than 1000 nM.

For the compound `COc1ccc(C(=O)NS(=O)(=O)c2ccc(-c3ccc4c(c3)CC[C@H](CNC[C@H](O)c3cccnc3)O4)cc2)cc1` [Example 300, 4-[(2R)-2-({[(2R)-2-hydroxy-2-(3-pyridinyl)ethyl]amino}methyl)-3,4-dihydro-2H-chromen-6-yl]-N-(4-methoxybenzoyl)benzenesulfonamide], the half-maximal effective concentration (EC50) is no more than 1000 nM.

As to `CC(=O)c1ccc(NS(=O)(=O)c2ccc(-c3ccc4c(c3)CC[C@H](CNC[C@H](O)c3cccnc3)O4)cc2OC(F)(F)F)cc1` [Example 263], the concentration for a half-maximal effect (EC50) is no more than 1000 nM.

Regarding `O=C(Nc1ccc(F)cc1)NS(=O)(=O)c1cccc(-c2ccc3c(c2)CC[C@H](CNC[C@H](O)c2cccnc2)O3)c1` [Example 333], the EC50 was no more than 1000 nM.

`O[C@@H](CNC[C@H]1CCc2cc(-c3ccc(F)cc3)ccc2O1)c1cccnc1` [Example 48]: the EC50 is no more than 1000 nM.

Source of the values: patent US6660752B2, “2,6-Substituted chroman derivatives useful as beta-3 adrenoreceptor agonists” (Bayer Pharmaceuticals Corporation, priority 2001, dated 2003).
